Legend:
[1] = BPBBT solution in 5% THF at the same concentration (50 μM); stated as known; cited from earlier work
[2] = 808 nm laser, 3 min irradiation per cycle
Experimental: The nanoparticle solution filled with the BPBBT dot was fixed and irradiated by using an 808 nm laser. Meanwhile, the temperature of the solution was monitored in real time by using a thermal imaging camera. The laser was turned off after 3 min of irradiation, and the laser was turned on again when the temperature was recovered to the initial temperature. In this way, 5 cycles were repeated, and whether the highest temperature of each cycle was the same or not was observed so as to judge the stability of photothermal conversion.

In the case of “4,8-bis[4-(N, N-bis(4-octyloxyphenyl)amino)phenyl]benzo[1,2-c:4,5-c′]bis([1,2,5]thiadiazole) [BPBBT]”, the photothermal conversion efficiency [1] is listed as 22% and the maximum temperature [2] is listed as “about 48 °C”.

Reference: patent publication US20240398999A1, “DC BIOMIMETIC MEMBRANE NANOPARTICLE LOADED WITH NIR-II AIE DYE, PREPARATION METHOD THEREFOR AND USE THEREOF” (SHENZHEN INSTITUTES OF ADVANCED TECHNOLOGY CHINESE ACADEMY …, priority 2023, published 2024)
